Laboratory results taken from publication PMC5458078, “Global mapping of CARM1 substrates defines enzyme specificity and substrate recognition” (Nature Communications, 2017).

What follows are substances tested on MCF7 cells (assay: Quantitative nanoLC-MS/MS (TMT) of ADMA-containing peptides, CARM1 KO vs parental). Conditions: ADMA-containing peptide, CARM1 knockout (KO) vs wild type (WT) MCF7 cells; 6-plex TMT experiment #1; three biological replicates each; sheet "MCF7".
Assay type: cell-based, human
Set-up: Fold change KO/WT: scale not given here
“NSCPGPLDSSAFLSSDFLLPEDPKPrLPPPPVPPPLLHYPPPAK” was tested, and the “Fold change KO/WT” value was -3.136.
With QGSIGLYTQNQPLPAGGPrVDPYrPVrLPMQK the “Fold change KO/WT” value was -2.292.

Same assay, conditions: ADMA-containing peptide, MCF7, CARM1 knockout (KO1-3) vs wild type (WT1-3), TMT 6-plex experiment #1
In the case of NELIArYIK, the “Fold change KO/WT” value is reported as 0.1085.
With NHPrVYQNR the “Fold change KO/WT” value was 0.9632.
In the case of “QAPrDGLTPVPPLAPAPrPPSSGLPAVLNPrPTLTPGrLPTPTLGTArAPMPTPTLVrPLLK”, the “Fold change KO/WT” value is reported as -4.977.
For “QGQPTPLVIQQPPKPGALIrPPQVTLTQTPMVALrQPHNR”, the “Fold change KO/WT” value was -2.284.

Same assay, conditions: CARM1 KO vs wild type MCF7 cells, 3 biological replicates each
For NPHTLGLSrYHPYGK, the “Fold change KO/WT” value was -0.4466.
For QAAPQMLQQQPPrLISVQTMQR, the “Fold change KO/WT” value was -1.292.

Same assay, conditions: MCF7, CARM1 KO (KO1-KO3) vs wild type (WT1-WT3)
“MGTPVPrPPQDMGQIGVRTPLGPrVAAPVGPVGPTPTVLPMGAPVPrPR” was tested, and the “Fold change KO/WT” value was -2.512.
In the case of “MGTPVPrPPQDMGQIGVrTPLGPRVAAPVGPVGPTPTVLPMGAPVPrPR”, the “Fold change KO/WT” value is reported as -3.625.
In the case of “MGTPVPrPPQDMGQIGVrTPLGPrVAAPVGPVGPTPTVLPMGAPVPrPR”, the “Fold change KO/WT” value is reported as -2.587.
For MPTMPMLDIrPGLIPQAPGPrFPLIQPGIPPQR, the “Fold change KO/WT” value was -2.649.
In the case of “NVNPVILLNTQTrPYGFGLNHGHTPYSSMLNQGLGVPGIGATQGLrTGFTNIPSrYGTNNR”, the “Fold change KO/WT” value is reported as -2.828.

Same assay, conditions: MCF7, CARM1 KO vs WT, three biological replicates each
With “MRPQPYGGTNPYSQQQGPPSGPQQGHGYPGQPYGSQTPQrYPMTMQGR” the “Fold change KO/WT” value was -2.959.
NRPAIArGAAGGGGR was tested, and the “Fold change KO/WT” value was 0.06918.
In the case of NrGAGGFGGGGGTR, the “Fold change KO/WT” value is reported as -0.03405.

Same assay, conditions: MCF7, CARM1 knockout vs wild type, n = 3 each
For “NDTKDDLGNLNVPDSSLPAENEATGPGFVPPPLAPIrGPLFPVDArGPFLR”, the “Fold change KO/WT” value was -2.279.
In the case of NPFLTGLSAPSPTNPFGAGEPGrPTLNQMR, the “Fold change KO/WT” value is reported as -3.967.

Same assay, conditions: MCF7 CARM1 knockout vs wild type, 3 biological replicates each; values are on log2 scale
For “NAALGPSEPrLALAPVGPrAAMSASSEGPrLALASPrPILAPLCTPEGQK”, the “Fold change KO/WT” value was -3.912.
With QALGSPLAGISTrLPGPGEPVPGPAGPAQFIELrHNVQK the “Fold change KO/WT” value was -2.458.
With QHLLLrGPPPGSANPPrLVSSYrLK the “Fold change KO/WT” value was -1.782.

The substances below were run on MCF7 CARM1 KO cells (assay: Quantitative MS of ADMA-containing peptides in MCF7 CARM1 KO cells expressing CARM1 28-608 or CARM1 140-608, and in CARM1 KO). Conditions: CARM1 140-608 versus WT, difference of mean log2 values.
Assay type: cell-based, human
NPHTLGLSrYHPYGK was tested, and the “CARM1 140-608/WT” value was -0.4138.
With QAAPQMLQQQPPrLISVQTMQR the “CARM1 140-608/WT” value was -0.6208.

Same assay, conditions: CARM1 140-608 vs WT, mean of 3 replicates (log2 scale)
For “MGTPVPrPPQDMGQIGVRTPLGPrVAAPVGPVGPTPTVLPMGAPVPrPR”, the “CARM1 140-608/WT” value was -3.81.
“MGTPVPrPPQDMGQIGVrTPLGPRVAAPVGPVGPTPTVLPMGAPVPrPR” was tested, and the “CARM1 140-608/WT” value was -2.791.
With “MGTPVPrPPQDMGQIGVrTPLGPrVAAPVGPVGPTPTVLPMGAPVPrPR” the “CARM1 140-608/WT” value was -1.761.
With MPTMPMLDIrPGLIPQAPGPrFPLIQPGIPPQR the “CARM1 140-608/WT” value was 0.8902.
With “NVNPVILLNTQTrPYGFGLNHGHTPYSSMLNQGLGVPGIGATQGLrTGFTNIPSrYGTNNR” the “CARM1 140-608/WT” value was -1.7448.

Same assay, conditions: CARM1 140-608 vs WT, mean of 3 replicates, log2
“MRPQPYGGTNPYSQQQGPPSGPQQGHGYPGQPYGSQTPQrYPMTMQGR” was tested, and the “CARM1 140-608/WT” value was -0.1711.
NRPAIArGAAGGGGR was tested, and the “CARM1 140-608/WT” value was -0.06003.
For NrGAGGFGGGGGTR, the “CARM1 140-608/WT” value was 0.06902.

Same assay, conditions: CARM1 KO versus WT, difference of mean log2 values
NPHTLGLSrYHPYGK was tested, and the KO/WT was -0.4466.
QAAPQMLQQQPPrLISVQTMQR gave a KO/WT of -1.292.

Same assay, conditions: KO vs WT, mean of 3 replicates (log2 scale)
Substance “MGTPVPrPPQDMGQIGVRTPLGPrVAAPVGPVGPTPTVLPMGAPVPrPR” has a KO/WT of -4.903.
Work on “MGTPVPrPPQDMGQIGVrTPLGPRVAAPVGPVGPTPTVLPMGAPVPrPR” yielded a KO/WT of -3.834.
For “MGTPVPrPPQDMGQIGVrTPLGPrVAAPVGPVGPTPTVLPMGAPVPrPR”, the KO/WT was -2.783.
MPTMPMLDIrPGLIPQAPGPrFPLIQPGIPPQR showed a KO/WT of -2.649.
Substance “NVNPVILLNTQTrPYGFGLNHGHTPYSSMLNQGLGVPGIGATQGLrTGFTNIPSrYGTNNR” has a KO/WT of -2.828.

Same assay, conditions: KO vs WT, mean of 3 replicates, log2
Work on “MRPQPYGGTNPYSQQQGPPSGPQQGHGYPGQPYGSQTPQrYPMTMQGR” yielded a KO/WT of -1.781.
Work on NRPAIArGAAGGGGR yielded a KO/WT of 0.534.
In the case of NrGAGGFGGGGGTR, the KO/WT is reported as 0.4755.

Same assay, conditions: difference of log2 means, CARM1 140-608 vs WT
“NSCPGPLDSSAFLSSDFLLPEDPKPrLPPPPVPPPLLHYPPPAK” was tested, and the “CARM1 140-608/WT” value was -1.41.
In the case of QALGSPLAGISTrLPGPGEPVPGPAGPAQFIELrHNVQK, the “CARM1 140-608/WT” value is reported as -1.36.
With QGSIGLYTQNQPLPAGGPrVDPYrPVrLPMQK the “CARM1 140-608/WT” value was -2.266.
QHLLLrGPPPGSANPPrLVSSYrLK was tested, and the “CARM1 140-608/WT” value was -1.091.

Same assay, conditions: difference of log2 means, KO vs WT
“NSCPGPLDSSAFLSSDFLLPEDPKPrLPPPPVPPPLLHYPPPAK” gave a KO/WT of -3.136.
With QALGSPLAGISTrLPGPGEPVPGPAGPAQFIELrHNVQK the KO/WT was -2.458.
With QGSIGLYTQNQPLPAGGPrVDPYrPVrLPMQK the KO/WT was -3.357.
For QHLLLrGPPPGSANPPrLVSSYrLK, the KO/WT was -1.563.

Same assay, conditions: log2 scale ratio, mean of n = 3
NELIArYIK was tested, and the “CARM1 140-608/WT” value was -0.332 and the KO/WT was -0.02143.
NHPrVYQNR was tested, and the “CARM1 140-608/WT” value was -0.04969 and the KO/WT was 0.9632.
For “QAPrDGLTPVPPLAPAPrPPSSGLPAVLNPrPTLTPGrLPTPTLGTArAPMPTPTLVrPLLK”, the “CARM1 140-608/WT” value was -2.613 and the KO/WT was -4.977.
With “QGQPTPLVIQQPPKPGALIrPPQVTLTQTPMVALrQPHNR” the “CARM1 140-608/WT” value was -1.328 and the KO/WT was -2.284.

Same assay, conditions: mean, CARM1 140-608 versus WT (log2 scale)
With “NAALGPSEPrLALAPVGPrAAMSASSEGPrLALASPrPILAPLCTPEGQK” the “CARM1 140-608/WT” value was -2.352.

Same assay, conditions: mean, CARM1 KO versus WT (log2 scale)
With “NAALGPSEPrLALAPVGPrAAMSASSEGPrLALASPrPILAPLCTPEGQK” the KO/WT was -3.912.

Same assay, conditions: ratio on log2 scale, mean of 3 replicates
In the case of “NDTKDDLGNLNVPDSSLPAENEATGPGFVPPPLAPIrGPLFPVDArGPFLR”, the “CARM1 140-608/WT” value is reported as 0.1654 and the KO/WT is reported as -2.602.
With NPFLTGLSAPSPTNPFGAGEPGrPTLNQMR the “CARM1 140-608/WT” value was -2.593 and the KO/WT was -3.967.
